The assay has as its target Estrogen receptor (Homo sapiens) (UniProt P03372). Description: inhibitors of estradiol-driven ERα reporter activity – HEC-1 cells, luciferase reporter, 1 nM E2, orthogonal assay for ERα coactivator binding inhibitor project, dose response (AID 1078). The settings on record: ERE-luciferase reporter, 1 nM E2, 24 h.

Chain of Estrogen receptor (Homo sapiens) (P03372 whole entry, looked up): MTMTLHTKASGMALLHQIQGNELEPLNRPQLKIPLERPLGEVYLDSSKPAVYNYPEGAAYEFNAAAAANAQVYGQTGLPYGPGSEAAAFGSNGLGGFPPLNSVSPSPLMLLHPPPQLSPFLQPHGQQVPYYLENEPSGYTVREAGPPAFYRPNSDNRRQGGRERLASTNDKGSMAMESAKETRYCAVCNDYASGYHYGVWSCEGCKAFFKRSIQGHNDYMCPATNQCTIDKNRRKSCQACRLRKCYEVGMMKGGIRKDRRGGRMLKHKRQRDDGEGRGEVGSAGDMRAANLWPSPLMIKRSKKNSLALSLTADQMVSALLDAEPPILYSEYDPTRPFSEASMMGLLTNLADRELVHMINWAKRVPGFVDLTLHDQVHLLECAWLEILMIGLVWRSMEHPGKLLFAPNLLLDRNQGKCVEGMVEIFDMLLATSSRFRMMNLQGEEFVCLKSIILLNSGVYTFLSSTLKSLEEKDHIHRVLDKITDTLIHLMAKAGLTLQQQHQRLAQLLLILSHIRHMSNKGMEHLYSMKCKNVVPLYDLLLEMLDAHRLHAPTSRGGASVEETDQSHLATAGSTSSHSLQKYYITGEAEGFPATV

Consider `Cc1ccc(-n2c(=O)c(C#N)cc3c(=O)n4cccc(C)c4nc32)cc1`, for which the IC50 was 4.65 µM.
